US20230077723A1, “N-SUBSTITUTED-3,4-(FUSED 5-RING)-5-PHENYL-PYRROLIDINE-2-ONE COMPOUNDS AS INHIBITORS OF ISOQC AND/OR QC ENZYME” (Scenic Immunology B.V., priority 2019, published 2023)
Read-outs that look alike come from different tables or passages of the source.

What was measured:
[1] = target: T1, human isoQC (S53-L382) (Homo sapiens, UniProt Q9NXS2); assay: Assay 1 - isoQC inhibition, fluorescent enzymatic assay (single concentration); format: biochemical; settings: isoQC inhibition at 250 nM test compound; read-out: isoQc Inh. Assay No. 1
T1 construct: enzymatically active region of human isoQC (S53-L382; see, e.g., Huang et al., 2011); GST-Enterokinase site (N, cleaved yes); made in house; host or cells: E. coli
T1 sequence (Q9NXS2 53-382): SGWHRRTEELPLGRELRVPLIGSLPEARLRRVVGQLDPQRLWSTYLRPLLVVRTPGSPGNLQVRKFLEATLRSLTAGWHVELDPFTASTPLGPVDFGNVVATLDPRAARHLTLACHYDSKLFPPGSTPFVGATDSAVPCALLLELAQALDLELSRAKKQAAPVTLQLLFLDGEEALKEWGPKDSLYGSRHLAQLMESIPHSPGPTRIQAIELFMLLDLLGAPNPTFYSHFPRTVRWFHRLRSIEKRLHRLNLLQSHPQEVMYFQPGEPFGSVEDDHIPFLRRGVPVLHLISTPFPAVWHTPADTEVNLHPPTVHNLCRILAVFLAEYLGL
Method: Initially, isoQC inhibitory activity was measured at a single concentration in a fluorescent-based assay (Assay 1 below). In order to establish the inhibitory activity more quantitatively, IC50 values were obtained using a mass spectrometry-based assay where pyroglutamylation by either isoQC or QC was measured (Assays 2 and 4, respectively, below). Alternatively, IC50 values for isoQC or QC were obtained using a fluorescence-based assay (Assays 3 and 5 respectively, below).
(§1) The Golgi luminal, enzymatically active region of human isoQC (S53-L382; see, e.g., Huang et al., 2011) was obtained by expression in E. coli of an N-terminally GST-Enterokinase and C-terminally 6×His tagged construct in the pET41(+) vector and subsequent purification using talon beads and GST beads, enterokinase digestion and further purification with a final formulation in 25 mM Tris pH 8.0/150 mM NaCl/1 mM TCEP. Absence of pyroglutamylating activity in an enzymatic dead variant that was cloned, expressed, and purified in parallel ruled out that the purification strategy isolates any endogenously present pyroglutamylating activity.
Pyroglutamylation was measured by conversion of glutamine-4-amino-7-methylcoumarine (H-Gln-AMC, Bachem) to pyroglutamyl-AMC, which is subsequently a specific substrate for pyroglutamylaminopeptidase (pGAPase, Qiagen), releasing free AMC which can be fluorescently detected. For a typical inhibition assay, 15 μL 20 μM h-Gln-AMC (diluted from a 40 mM stock dissolved in 25 mM HEPES using 50 mM Tris-HCl pH 8.0) was pipetted into a 96-well plate on ice. Next, 7.5 μL 1 μM test compound (diluted from a 10 mM stock dissolved in DMSO using 50 mM Tris-HCl) was added. Finally, 7.5 μL, 3 ng/μL recombinant isoQC enzyme was added and the reaction mixture was incubated for 1 hour at 37° C. A 5 minute incubation at 98° C. was then performed to denature the isoQC enzyme and stop the reaction.
To detect the amount of pyroglutamyl-AMC formed, a 96-well plate was prepared with 25 μL 0.125 U/mL pGAPase enzyme diluted in 50 mM Tris-HCl pH 8.0 containing 10 mM dithiothreitol (DTT). 25 μL of the pyroglutamylation reaction mixture was transferred into the plate containing the pGAPase solutions while on ice. Once done, the plate was moved over to a Spectramax ID3 fluorescent plate-reader to monitor and record the maximum fluorescence at 380 nm excitation/450 nm emission over a period of 20 minutes while keeping the temperature at 37° C.
DMSO concentrations during the assay never exceeded 1% and activities were compared to controls containing only the same amount of DMSO and no test compound. […] Test compounds were reported as active when <40% of background corrected signal was measured as compared to DMSO controls.

[2] = target: T1, human isoQC (S53-L382); assay: Assay 2 - isoQC potency, mass spectrometry-based enzymatic potency assay; format: biochemical; settings: mass spectrometry read-out, 7.5 nM isoQC, 10 μM H-Gln-AMC; read-out: isoQc Pot. Assay No. 2
Method: as §1
(§2) EC50's of test compounds were determined by incubating 11-point two-fold dilutions of test compound in 20 μL volumes in the presence of 7.5 nM isoQC and 10 μM H-Gln-AMC using 50 mM Tris-HCl pH 8.0 as assay buffer for 2 hours at room temperature before stopping the reaction by the addition of 2 volumes of methanol. Both the substrate and the product of this reaction were read out using an Agilent RapidFire microfluidic solid phase sample extraction system coupled to an AB Sciex API 4000 triple quadrupole mass spectrometer, in negative ion mode, at m/z of 301.9 and 284.9 respectively. The actual readout was defined as P/(S+P), where P is the product signal area and S the substrate signal area. EC50's were calculated by four parameter sigmoidal model fitting.

[3] = target: T2, recombinant human QC (Homo sapiens, UniProt Q16769); assay: Assay 4 - QC potency, mass spectrometry-based enzymatic potency assay; format: biochemical; settings: mass spectrometry read-out; read-out: QC Pot. Assay No. 4
T2 construct: His6 (N); purchased R&D Systems
T2 sequence (Q16769 29-361): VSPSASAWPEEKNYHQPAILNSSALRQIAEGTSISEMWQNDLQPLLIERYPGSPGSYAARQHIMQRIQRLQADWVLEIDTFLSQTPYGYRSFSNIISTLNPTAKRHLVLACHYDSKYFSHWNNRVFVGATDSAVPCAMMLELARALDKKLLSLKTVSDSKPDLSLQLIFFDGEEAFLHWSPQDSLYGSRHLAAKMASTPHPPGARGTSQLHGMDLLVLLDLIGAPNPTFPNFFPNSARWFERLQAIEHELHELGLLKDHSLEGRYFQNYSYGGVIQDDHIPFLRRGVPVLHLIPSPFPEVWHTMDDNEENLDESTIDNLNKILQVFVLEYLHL
Method: as §2
EC50's of test compounds were determined in the same way as described in Assay 2 above, except that N-terminally His6-tagged recombinant human QC (R&D Systems) was used instead of isoQC.

[4] = test system: pyroglutamylated CD47 (pE-CD47) in KBM7 cells; assay: Assay 6 - cell-based potency assay (pE-CD47 CC2C6 staining vs total CD47); parameters: species or system human; settings: CC2C6 signal
Method: Cells were spun for 4 minutes at 1500 rpm and washed once with PBS/0.5% BSA. Cells were spun down again and the supernatant was removed and incubated in 100 uL antibody staining solution (PBS/0.5% BSA/0.1 μg/mL DAPI (4′,6-diamidino-2-phenylindole, ThermoFisher Scientific) and a mixture of 1:500 FITC-conjugated anti-human CD47 clone 2D3, which recognizes total CD47 irrespective of its pyroglutamylation state, and 1:500 Alexa647-conjugated anti-human CD47 clone CC2C6, which specifically detects pyroglutamylated CD47) for 2 hours at 4° C. Next, the cells were spun down and washed twice with 2×150 μL PBS/0.5% BSA to remove unbound antibody. Cells were again spun down and taken up in 300 μL FACS buffer before analysis on a Celesta FACS machine (BD Biosciences).
KBM7 cells (Kotecki et al., 1999) were infected with lentivirus produced by transfecting pSCNC-LentiCRISPR-QPCTL or pSCNC-LentiCRISPR-CD47 into HEK-293T cells according to standard protocols. After 24 hours incubation, cells were selected with puromycin (Invivogen, 1 μg/mL) for 48 hours. Cells were stained for total CD47 and pE-CD47 and QPCTL k.o. cells were sorted out as negative for pE-CD47, and CD47 k.o. cells as negative for total CD47, using a FACSAria III and FACS Diva software (BD Biosciences).
In order to test compounds for their effect on pyroglutamylation in live cells, 25000 KBM7 cells per well were seeded in a 96-well U-bottom plate in 150 μl IMDM/10% FCS/1% Pen/Strep medium and a 10-point 2-fold dilution range of test compounds. After 72 hours incubation at 37° C., 5% CO2, cells were stained for total CD47 and pE-CD47 and analyzed on a BD Celesta using FACS Diva software (BD Biosciences). Cells gated for DAPI negativity were recorded and the median fluorescence intensity (MFI) of each sample was transformed to linearly scale between the MFI's of wildtype and CD47 knockout cells (in case of the 2D3 antibody) and the wildtype and QPCTL knockout cells (in case of the CC2C6 antibody). IC50's were calculated by 3 parameter logistic regression of the CC2C6 signal vs. compound concentration, where the top of the sigmoidal curve was fixed at 1, using R and the drc package (http://www.r-project.org, https://cran.r-project.org/web/packages/drc/index.html).

[5] = Homo sapiens, KBM-7, 72 h, read-out: Cell Pot. Assay No. 6

Structure (SMILES)	inhibition at 0.25 µM [1]	IC50 [4, 5]	also measured
CCCOc1ccc(C2c3c(nn(C)c3CC)C(=O)N2c2ccc3[nH]cnc3c2)cc1 (centres unmarked) [FRPPO-007]	> 40%	< 1000 nM	IC50 [2]: 25 to 100 nM; IC50 [3]: 25 to 100 nM
Cc1c2c(nn1C)C(=O)N(c1ccc3[nH]cnc3c1)C2c1ccc(Oc2cnn(C)c2)cc1 (centres unmarked) [FRPPO-025]	> 40%	5000 to 50000 nM	IC50 [2]: < 25 nM; IC50 [3]: 25 to 100 nM
CCCOc1ccc(C2c3c(nn(COC)c3C)C(=O)N2c2ccc3[nH]cnc3c2)cc1 (centres unmarked) [FRPPO-031]	> 40%	1000 to 5000 nM	IC50 [2]: 25 to 100 nM; IC50 [3]: 100 to 5000 nM
CCCOc1ccc(C2c3c(nn(CC4CC4)c3C)C(=O)N2c2ccc3[nH]cnc3c2)cc1 (centres unmarked) [FRPPO-034]	> 40%	1000 to 5000 nM	IC50 [2]: 100 to 5000 nM; IC50 [3]: 100 to 5000 nM
Cc1c2c(nn1C)C(=O)N(c1ccc3[nH]cnc3c1)C2c1ccc2nsnc2c1 (centres unmarked) [FRPPO-020]	> 40%	1000 to 5000 nM	IC50 [2]: < 25 nM; IC50 [3]: 25 to 100 nM
CCCOc1ccc(C2c3c(nn(C4CC4)c3C)C(=O)N2c2ccc3[nH]cnc3c2)cc1 (centres unmarked) [FRPPO-036]	> 40%	< 1000 nM	–
CCCOc1ccc(C2c3c(C)nn(C(C)C)c3C(=O)N2c2ccc3[nH]cnc3c2)cc1 (centres unmarked) [FRPPO-021]	≤ 40%	5000 to 50000 nM	–
CCCOc1ccc(C2c3c(nn(CC(C)(C)F)c3C)C(=O)N2c2ccc3[nH]cnc3c2)cc1 (centres unmarked) [FRPPO-038]	> 40%	1000 to 5000 nM	–
CC(C)c1[nH]nc2c1C(c1ccc(N3CCC(F)(F)C3)cc1F)N(c1ccc3[nH]cnc3c1)C2=O (centres unmarked) [FRPPO-153]	–	< 1000 nM	–
Cc1c2c(nn1C)C(=O)N(c1ccc3[nH]cnc3c1)C2c1ccc(N2CC(F)C2)cc1F (centres unmarked) [FRPPO-072]	–	< 1000 nM	–
Cn1nc(C(F)(F)F)c2c1C(c1ccc(Cl)cc1F)N(c1ccc3[nH]cnc3c1)C2=O (centres unmarked) [FRPPO-053]	–	5000 to 50000 nM	–
CCCOc1ccc(C2c3c(C)nn(C4CCC4)c3C(=O)N2c2ccc3[nH]cnc3c2)cc1 (centres unmarked) [FRPPO-022]	≤ 40%	1000 to 5000 nM	–
Cc1c2c(nn1C)C(c1ccc(N3CCC(F)(F)C3)cc1F)N(c1ccc3[nH]cnc3c1)C2=O (centres unmarked) [FRPPO-046]	–	5000 to 50000 nM	–
CCCOc1ccc(C2c3c(C)nn(CC(F)(F)F)c3C(=O)N2c2ccc3[nH]cnc3c2)cc1 (centres unmarked) [FRPPO-023]	≤ 40%	5000 to 50000 nM	–
Cc1c2c(nn1C)C(=O)N(c1ccc3[nH]cnc3c1)C2c1ccc(N2CCC3(CCOC3)C2)cc1F (centres unmarked) [FRPPO-104]	–	< 1000 nM	–
CCCOc1ccc(C2c3c(C)nn(C)c3C(=O)N2c2ccc3[nH]cnc3c2)cc1 (centres unmarked) [FRPPO-002]	–	1000 to 5000 nM	–
CCCOc1ccc(C2c3c(nn(CC(F)(F)F)c3C)C(=O)N2c2ccc3[nH]cnc3c2)cc1 (centres unmarked) [FRPPO-037]	> 40%	1000 to 5000 nM	–
Cc1nc2c(s1)C(c1ccc(Cl)cc1F)N(c1ccc3[nH]cnc3c1)C2=O (centres unmarked) [FRPPO-064]	–	5000 to 50000 nM	–

Structure (SMILES)	inhibition at 0.25 µM [1]	IC50 [4, 5]	also measured
Cc1c2c(nn1C)C(=O)N(c1ccc3[nH]cnc3c1)C2c1ccc(N2CCC[C@H]2C)cc1F (some centres unmarked) [FRPPO-115A]	–	< 1000 nM	–
Cc1c2c(nn1C)C(=O)N(c1ccc3[nH]cnc3c1)C2c1ccc(N2CCC3(COC3)C2)cc1F (centres unmarked) [FRPPO-097]	–	< 1000 nM	–
Cc1c2c(nn1C)C(=O)N(c1ccc3[nH]cnc3c1)C2c1ccc(NCCC(F)(F)F)cc1F (centres unmarked) [FRPPO-092]	–	< 1000 nM	–
CC(O)c1c2c(nn1C)C(=O)N(c1ccc3[nH]cnc3c1)C2c1ccc(N2CCC(F)(F)C2)cc1F (centres unmarked) [FRPPO-156]	–	< 1000 nM	–
Cc1c2c(nn1C)C(=O)N(c1ccc3[nH]cnc3c1)C2c1ccc(N2CCNC(C)C2)cc1F (centres unmarked) [FRPPO-082]	–	5000 to 50000 nM	–
CC(C)c1c2c(nn1C)C(=O)N(c1ccc3[nH]cnc3c1)C2c1ccc(N2CCC(F)(F)C2)cc1F (centres unmarked) [FRPPO-152A]	–	< 1000 nM	–
CCCOc1ccc(C2c3c(nn(C)c3C)C(=O)N2c2ccc3nnn(C)c3n2)cc1 (racemic) [REF-007, reference compound]	–	–	IC50 ([4]; Homo sapiens, KBM-7, 72 h, Table 2, read-out: Cell Potency Assay 6 (Comparison Data)): > 6250 nM
Cc1c2c(nn1C)C(=O)N(c1ccc3[nH]cnc3c1)C2c1ccc(N2CCOC(C(F)(F)F)C2)cc1F (centres unmarked) [FRPPO-109]	–	< 1000 nM	–
Cc1c2c(nn1C)C(=O)N(c1ccc3[nH]cnc3c1)C2c1ccc(N2CC3CC2CO3)cc1F (centres unmarked) [FRPPO-081]	–	1000 to 5000 nM	–
Cc1c2c(nn1C)C(=O)N(c1ccc3[nH]cnc3c1)C2c1ccc(N2CC3CCC(C2)O3)cc1F (centres unmarked) [FRPPO-096]	–	< 1000 nM	–
Cc1c2c(nn1C)C(=O)N(c1ccc3[nH]cnc3c1)C2c1ccc(-n2cc(C(F)(F)F)cn2)cc1F (centres unmarked) [FRPPO-150A]	–	< 1000 nM	–
Cc1nn(C)c2c1C(c1ccc(-n3cc(C(F)(F)F)cn3)cc1)N(c1ccc3[nH]cnc3c1)C2=O (centres unmarked) [FRPPO-174]	–	1000 to 5000 nM	–
Cc1[nH]nc2c1C(c1ccc(-c3csc(C(F)(F)F)n3)cc1F)N(c1ccc3[nH]cnc3c1)C2=O (centres unmarked) [FRPPO-147]	–	< 1000 nM	–
Cc1c2c(nn1C)C(=O)N(c1ccc3[nH]cnc3c1)C2c1ccc(N2CC3(CCOC3)C2)cc1F (centres unmarked) [FRPPO-095]	–	1000 to 5000 nM	–
Cc1nn(C)c2c1C(=O)N(c1ccc3[nH]cnc3c1)C2c1ccc(N2CCC(F)(F)C2)cc1F (centres unmarked) [FRPPO-049]	–	< 1000 nM	–
Cn1nc(C2CC2)c2c1C(=O)N(c1ccc3[nH]cnc3c1)C2c1ccc(N2CCC(F)(F)C2)cc1 (centres unmarked) [FRPPO-168]	–	1000 to 5000 nM	–
Cc1c2c(nn1C)C(=O)N(c1ccc3[nH]cnc3c1)C2c1ccc(N2CCC(F)(F)C2)c(F)c1F (centres unmarked) [FRPPO-066]	–	–	IC50 ([4]; 72 hours, read-out: Cell Pot. Assay No. 6): 1000 to 5000 nM
